Tested on: KASE rats
Test: Effect of angiogenesis inhibitor on spontaneous seizure development after kainic acid-induced status epilepticus (KASE)
Assay type: in vivo, rat
Conditions: KASE rats (n=4); twice daily injections for fourteen consecutive days beginning one week following KASE; first three weeks of monitoring, daily 8-hour observation sessions; relative to untreated KASE or control rats
Excerpt: We have administered HET0016, an inhibitor of angiogenesis, during the “latent period” that follows KASE and precedes the emergence of spontaneous seizures, to assess whether the development of spontaneous seizures could be impeded. Optimal doses for achieving antiangiogenesis have been established for some of these compounds in other pathological contexts and we have acquired some knowledge of the progression of angiogenesis following KASE using our temporal BrdU assay. On the basis of these observations, we administered a proven antiangiogenic compound at the optimal dosage established in other pathological contexts. This compound was administered to KASE rats (n=4) via twice daily injections for fourteen consecutive days, beginning one week following KASE. Four untreated KASE rats (n=4) received sham injections of diluent and were processed in parallel. Control rats (n=2) received neither KASE nor antiangiogenic therapy. The occurrence of spontaneous seizures in these cohorts was monitored during daily during 8-hour observation sessions beginning one week following KASE, and continues to the present.

CCCCc1ccc(N=CNO)c(C)c1 [HET0016]
development of spontaneous seizures (cumulative seizures, FIG. 7): impeded the development of spontaneous seizures

From US20110160272A1, “METHODS AND COMPOSITIONS FOR USE OF ANGIOGENESIS INHIBITORS IN THE PREVENTION AND/OR CONTROL OF EPILEPSY” (priority 2004, published 2011)
